Article PMC4895354 (2016)
Values belong to the molecule of their own block, whether it stands above or below them.

What was measured:
[1] = tested on: r(AUUCU)11, 5'-32P labelled (RNA, repeat) AUUCUAUUCUAUUCUAUUCUAUUCUAUUCUAUUCUAUUCUAUUCUAUUCUAUUCU; assay: filter binding (dot blot); details: PBS, 1 mM MgCl2; pH 7.4; 50 μg/ml BSA; RNA 100 nM, compound 1 μM
[2] = tested on: r(AUUCU)11 (RNA, repeat) AUUCUAUUCUAUUCUAUUCUAUUCUAUUCUAUUCUAUUCUAUUCUAUUCUAUUCU; assay: fluorescence titration, sigmoidal fit; details: 185 mM NaCl, 8 mM Na2HPO4, pH 7.0, 0.1 mM EDTA
[3] = tested on: r(AUUCU)11 (RNA, repeat) AUUCUAUUCUAUUCUAUUCUAUUCUAUUCUAUUCUAUUCUAUUCUAUUCUAUUCU; assay: fluorescence titration, lattice (Scatchard-type) fit; details: 185 mM NaCl, 8 mM Na2HPO4, pH 7.0, 0.1 mM EDTA, microscopic Kd, per site
[4] = tested on: r(AUUCU)11 for TR-FRET (RNA, repeat) AUUCUAUUCUAUUCUAUUCUAUUCUAUUCUAUUCUAUUCUAUUCUAUUCUAUUCU; assay: TR-FRET, inhibition of RNA-protein complex; details: 110 mM KCl, 110 mM NaCl, 2 mM MgCl2, 2 mM CaCl2, 20 mM HEPES pH 7.5, DGCR8Δ 40 nM displaced, RNA 60 nM
[5] = tested on: r(CGG)12 (RNA, repeat) CGGCGGCGGCGGCGGCGGCGGCGGCGGCGGCGGCGG; assay: fluorescence titration, sigmoidal fit; details: 185 mM NaCl; 8 mM Na2HPO4, pH 7.0, 0.1 mM EDTA; range over four repeats 36–87 nM
[6] = tested on: GCGC (RNA, hairpin) GCGCGCGCGAAAGCGCGCGC; assay: fluorescence titration, sigmoidal fit; details: 185 mM NaCl, 8 mM Na2HPO4, pH 7.0, 0.1 mM EDTA, RNA titrated
[7] = tested on: AUAU (RNA, hairpin) AUAUAUAUAUAUGAAAAUAUAUAUAUAU; assay: fluorescence titration, sigmoidal fit; details: 185 mM NaCl, 8 mM Na2HPO4, pH 7.0, 0.1 mM EDTA, RNA titrated
[8] = tested on: r(CUG)12 (RNA, repeat) CUGCUGCUGCUGCUGCUGCUGCUGCUGCUGCUGCUG; assay: fluorescence titration, sigmoidal fit; details: 185 mM NaCl; 8 mM Na2HPO4, pH 7.0, 0.1 mM EDTA; range over four repeats 36–87 nM
[9] = tested on: GGCC (RNA, hairpin) GGCCGGCCGAAAGGCCGGCC; assay: fluorescence titration, sigmoidal fit; details: 185 mM NaCl, 8 mM Na2HPO4, pH 7.0, 0.1 mM EDTA, RNA titrated
[10] = tested on: AAUU (RNA, hairpin) AAUUAAUUAAUUGAAAAAUUAAUUAAUU; assay: fluorescence titration, sigmoidal fit; details: 185 mM NaCl, 8 mM Na2HPO4, pH 7.0, 0.1 mM EDTA, RNA titrated
[11] = tested on: r(CCUG)12 (RNA, repeat) CCUGCCUGCCUGCCUGCCUGCCUGCCUGCCUGCCUGCCUGCCUGCCUG; assay: fluorescence titration, sigmoidal fit; details: 185 mM NaCl; 8 mM Na2HPO4, pH 7.0, 0.1 mM EDTA; range over four repeats 36–87 nM
[12] = target: T1, DGCR8Δ (UniProt Q8WYQ5); assay: EMSA; details: 2 mM Mg2+, 2 mM Ca2+; EMSA: 20 mM HEPES pH 7.5, 110 mM KCl, 110 mM NaCl, 0.1% BSA, 2 mM MgCl2, 2 mM CaCl2, 0.05% Tween-20, 5 mM DTT, 15 min, room temperature; native 5% PAGE
T1 sequence: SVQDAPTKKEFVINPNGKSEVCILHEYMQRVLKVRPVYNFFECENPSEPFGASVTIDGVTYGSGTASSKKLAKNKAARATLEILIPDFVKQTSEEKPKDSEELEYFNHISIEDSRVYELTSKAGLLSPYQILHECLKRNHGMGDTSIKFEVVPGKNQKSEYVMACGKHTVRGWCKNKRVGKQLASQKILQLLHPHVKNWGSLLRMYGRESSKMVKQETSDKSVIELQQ

[13] = tested on: r(AUUCU)11, 5'-32P labelled (RNA, repeat) AUUCUAUUCUAUUCUAUUCUAUUCUAUUCUAUUCUAUUCUAUUCUAUUCUAUUCU; assay: RNase V1 protection; details: 1× RNA Structure Buffer; compound 0-20 μM; protects each AU pair
[14] = tested on: AUAU (RNA, hairpin) AUAUAUAUAUAUGAAAAUAUAUAUAUAU; assay: fluorescence titration, lattice (Scatchard-type) fit; details: 185 mM NaCl; 8 mM Na2HPO4, pH 7.0, 0.1 mM EDTA; microscopic Kd; per site
[15] = tested on: AAUU (RNA, hairpin) AAUUAAUUAAUUGAAAAAUUAAUUAAUU; assay: as above; details: 185 mM NaCl; 8 mM Na2HPO4, pH 7.0, 0.1 mM EDTA; microscopic Kd; per site

binding [1]: yes | EC50 ([2]; without PEG 8000): 146 ± 8 nM | Kd ([3]; Hill 1.4±0.4): 185 ± 1.0 nM | binding ([4]; ~70% inhibition at 1.5 μM): yes
Molecule: CCCN(CC(=O)N(CCC)CC(=O)N(CC(N)=O)Cc1cn(CCCNC(=N)c2ccc(-c3ccc(-c4ccc(C(=N)N)cc4)o3)cc2)nn1)C(=O)CNCc1cn(CCCNC(=N)c2ccc(-c3ccc(-c4ccc(C(=N)N)cc4)o3)cc2)nn1

binding [5]: yes | binding ([2]; range over four repeats 36–87 nM): yes | EC50 ([6]; 3 μM compound, Hill 0.92±0.34): 240 ± 10 nM | EC50 ([7]; 3 μM compound, Hill 1.5±0.32): 45 ± 1 nM | binding [8]: yes | EC50 ([9]; 3 μM compound, Hill 1.4±0.34): 390 ± 20 nM | EC50 ([10]; 3 μM compound, Hill 3.1±0.79): 170 ± 10 nM | binding [11]: yes
Molecule: N=C(N)c1ccc(-c2ccc(-c3ccccc3)o2)cc1

Molecule: AUUCUAUUCUAUUCUAUUCUAUUCUAUUCUAUUCUAUUCUAUUCUAUUCUAUUCU [r(AUUCU)11]
Kd [12]: 1600 nM

binding [13]: yes | EC50 ([6]; 1 μM compound, Hill 0.77±0.16): 6,950±250 nM | EC50 ([7]; 1 μM compound, Hill 1.6±0.28): 190 ± 20 nM | Kd ([3]; Hill 1.7±0.2): 300 ± 47 nM | Kd [14]: 210 nM | EC50 ([9]; 1 μM compound, Hill 0.85±0.08): 8,550±250 nM | Kd [15]: 320 nM | EC50 ([10]; 1 μM compound, Hill 1.5±0.24): 170 ± 40 nM
Molecule: N=C(N)c1ccc(-c2ccc(-c3ccc(C(=N)N)cc3)o2)cc1

EC50 ([6]; 1 μM compound): > 2,000 nM | EC50 ([7]; 1 μM compound, Hill 1.0±0.13): 31 ± 4 nM | Kd ([3]; Hill 1.3±0.1): 375 ± 34 nM | EC50 ([9]; 1 μM compound): > 6,000 nM | EC50 ([10]; 1 μM compound, Hill 1.0±0.17): 45 ± 6 nM | binding ([4]; ~25% inhibition at 1.5 μM): yes
Molecule: [N-]=[N+]=NCCCNC(=N)c1ccc(-c2ccc(-c3ccc(C(=N)N)cc3)o2)cc1
